For assay [1], the target named is Casein kinase II subunit alpha' (Homo sapiens) (UniProt P19784). In words: Inhibition of CSNK2A2 (unknown origin) assessed as remaining activity at 15 uM incubated for 1 hr by KINOMEscan competitive binding assay relative to control.
Assay [2] deals with Phosphatidylinositol 4,5-bisphosphate 3-kinase catalytic subunit alpha isoform (Homo sapiens), P42336 [M1043I]. In words: Inhibition of PIK3CA M1043I mutant (unknown origin) assessed as remaining activity at 15 uM incubated for 1 hr by KINOMEscan competitive binding assay relative to control.
For assay [3], the target named is Serine/threonine-protein kinase 38-like (Homo sapiens) (UniProt Q9Y2H1). Nature of the assay: Binding affinity to STK38L in human SKNBE2 cells assessed as effect on thermal stability at 49 degC incubated for 3 hrs by CETSA assay. The format is cell-based.
Assay [4] concerns the target T1, Phosphatidylinositol 4,5-bisphosphate 3-kinase catalytic subunit delta isoform (Homo sapiens) (UniProt O00329).
T1 sequence (whole entry): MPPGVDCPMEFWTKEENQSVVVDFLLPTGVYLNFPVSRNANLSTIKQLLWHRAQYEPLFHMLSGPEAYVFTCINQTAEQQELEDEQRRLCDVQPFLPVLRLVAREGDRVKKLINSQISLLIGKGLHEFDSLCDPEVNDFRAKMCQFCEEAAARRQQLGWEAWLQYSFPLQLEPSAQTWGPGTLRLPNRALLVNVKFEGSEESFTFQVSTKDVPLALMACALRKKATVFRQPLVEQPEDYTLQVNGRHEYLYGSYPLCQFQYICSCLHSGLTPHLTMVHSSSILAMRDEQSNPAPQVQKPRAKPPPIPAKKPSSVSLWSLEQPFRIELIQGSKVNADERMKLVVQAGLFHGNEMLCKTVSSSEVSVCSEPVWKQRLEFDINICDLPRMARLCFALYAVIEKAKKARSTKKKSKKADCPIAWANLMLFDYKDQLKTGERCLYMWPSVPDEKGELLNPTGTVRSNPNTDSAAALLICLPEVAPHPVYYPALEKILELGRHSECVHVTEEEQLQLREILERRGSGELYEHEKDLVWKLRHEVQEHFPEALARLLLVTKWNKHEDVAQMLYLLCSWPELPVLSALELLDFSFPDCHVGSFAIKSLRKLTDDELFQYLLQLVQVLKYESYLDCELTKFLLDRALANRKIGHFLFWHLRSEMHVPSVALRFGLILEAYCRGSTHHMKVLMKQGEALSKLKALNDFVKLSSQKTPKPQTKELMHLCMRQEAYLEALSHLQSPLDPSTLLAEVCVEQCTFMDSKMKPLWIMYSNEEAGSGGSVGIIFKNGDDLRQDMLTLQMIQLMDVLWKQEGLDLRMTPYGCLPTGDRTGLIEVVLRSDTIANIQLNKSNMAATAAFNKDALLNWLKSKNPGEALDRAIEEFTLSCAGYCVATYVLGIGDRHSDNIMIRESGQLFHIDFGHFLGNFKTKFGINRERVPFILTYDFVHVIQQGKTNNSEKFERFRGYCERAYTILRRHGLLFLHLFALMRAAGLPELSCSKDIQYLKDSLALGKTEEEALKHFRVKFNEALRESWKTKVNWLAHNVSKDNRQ
Nature of the assay: Inhibition of PIK3CD (unknown origin) assessed as remaining activity at 15 uM incubated for 1 hr by KINOMEscan competitive binding assay relative to control.

The test system of assay [5] is Phosphatidylinositol 4,5-bisphosphate 3-kinase catalytic subunit alpha isoform (Homo sapiens), P42336 [H1047Y]. In words: Inhibition of PIK3CA H1047Y mutant (unknown origin) assessed as remaining activity at 15 uM incubated for 1 hr by KINOMEscan competitive binding assay relative to control.
The subject of assay [6] is Phosphatidylinositol 4,5-bisphosphate 3-kinase catalytic subunit alpha isoform (Homo sapiens), P42336 [C420R]. Nature of the assay: Inhibition of PIK3CA C420R mutant (unknown origin) assessed as remaining activity at 15 uM incubated for 1 hr by KINOMEscan competitive binding assay relative to control.
For assay [7], the target named is Serine/threonine-protein kinase 38-like (Homo sapiens) (UniProt Q9Y2H1). Nature of the assay: Inhibition of NDR2 (unknown origin) assessed as remaining activity at 15 uM incubated for 1 hr by KINOMEscan competitive binding assay relative to control.
Assay [8] concerns the target Serine/threonine-protein kinase Chk2 (Homo sapiens) (UniProt O96017). Nature of the assay: Inhibition of CHEK2 (unknown origin) assessed as remaining activity at 15 uM incubated for 1 hr by KINOMEscan competitive binding assay relative to control.
Assay [9] concerns Phosphatidylinositol 4,5-bisphosphate 3-kinase catalytic subunit alpha isoform (Homo sapiens), P42336 [E545A]. Nature of the assay: Inhibition of PIK3CA E545A mutant (unknown origin) assessed as remaining activity at 15 uM incubated for 1 hr by KINOMEscan competitive binding assay relative to control.
Assay [10] has as its target Phosphatidylinositol 4,5-bisphosphate 3-kinase catalytic subunit gamma isoform (Homo sapiens) (UniProt P48736). In words: Inhibition of PIK3CG (unknown origin) assessed as remaining activity at 15 uM incubated for 1 hr by KINOMEscan competitive binding assay relative to control.
The subject of assay [11] is Phosphatidylinositol 4,5-bisphosphate 3-kinase catalytic subunit alpha isoform (Homo sapiens), P42336 [Q546K]. In words: Inhibition of PIK3CA Q546K mutant (unknown origin) assessed as remaining activity at 15 uM incubated for 1 hr by KINOMEscan competitive binding assay relative to control.
The target of assay [12] is Phosphatidylinositol 4,5-bisphosphate 3-kinase catalytic subunit beta isoform (Homo sapiens) (UniProt P42338). Nature of the assay: Inhibition of PIK3CB (unknown origin) assessed as remaining activity at 15 uM incubated for 1 hr by KINOMEscan competitive binding assay relative to control.
For assay [13], the system named is Phosphatidylinositol 4,5-bisphosphate 3-kinase catalytic subunit alpha isoform (Homo sapiens), P42336 [H1047L]. Nature of the assay: Inhibition of PIK3CA H1047L mutant (unknown origin) assessed as remaining activity at 15 uM incubated for 1 hr by KINOMEscan competitive binding assay relative to control.
Assay [14] relates to Phosphatidylinositol 4,5-bisphosphate 3-kinase catalytic subunit alpha isoform (Homo sapiens), P42336 [E542K]. In words: Inhibition of PIK3CA E542K mutant (unknown origin) assessed as remaining activity at 15 uM incubated for 1 hr by KINOMEscan competitive binding assay relative to control.
Assay [15] has as its target Phosphatidylinositol 4,5-bisphosphate 3-kinase catalytic subunit alpha isoform (Homo sapiens) (UniProt P42336). In words: Inhibition of PIK3CA (unknown origin) assessed as remaining activity at 15 uM incubated for 1 hr by KINOMEscan competitive binding assay relative to control.
The target in assay [16] is Phosphatidylinositol 4-phosphate 3-kinase C2 domain-containing subunit beta (Homo sapiens) (UniProt O00750). In words: Inhibition of PIK3C2B (unknown origin) assessed as remaining activity at 15 uM incubated for 1 hr by KINOMEscan competitive binding assay relative to control.
In assay [17] the test system is Phosphatidylinositol 4,5-bisphosphate 3-kinase catalytic subunit alpha isoform (Homo sapiens), P42336 [I800L]. In words: Inhibition of PIK3CA I800L mutant (unknown origin) assessed as remaining activity at 15 uM incubated for 1 hr by KINOMEscan competitive binding assay relative to control.

Calls of active or inactive are those of the source. The calls are words filed in the database; no cut-off is given here.

With `CC(C)CCOc1ccc2c(=O)c(-c3ccc(O)c(O)c3)coc2c1`, the Activity in assay [1] was 100%; in assay [2], 77%; in assay [4], 97%; in [5], 98%; in assay [6] it was 94%; in [7] it was 17%. Also, the Activity turned out to be 75% in [8]; 100% in assay [9]; 95% in [10]; 96% in assay [11]; 100% in assay [12]; 80% in assay [13]. Moreover, the Activity in [14] worked out at 98%; in assay [15], 100%; in assay [16], 100%; in assay [17], 91%. For the same molecule, in assay [3], the result was inactive.

Turning to `CC(C)=CCc1c2c(c3occ(-c4ccc(O)c(O)c4)c(=O)c3c1O)C=CC(C)(C)O2`, the result in [3] was inactive.

Turning to `CC(C)CC(=O)Oc1ccc2occ(-c3ccc(O)c(O)c3)c(=O)c2c1`, the Activity in assay [1] was determined as 52%; in assay [2], 85%; in [4], 93%; in [5], 98%; in assay [6], 87%; in [7], 48%. The Activity worked out at 76% in [8]; 100% in assay [9]; 86% in assay [10]; 84% in [11]; 92% in assay [12]; 69% in assay [13]. The Activity is 93% in assay [14], 91% in assay [15], 91% in [16] and 98% in assay [17].

For the origin of these results see ChEMBL document CHEMBL5370693, “Kinases Controlling Stability of the Oncogenic MYCN Protein” (ACS Med Chem Lett, 2023).
